Results reported in patent US4379788A, “2-Phenyl-pyrimidones” (Dr. Karl Thomae Gesellschaft mit beschrankter Haftung, priority 1980, dated 1983).

Experiments:
Type in all cases: in vivo
[1] = Determination of acute toxicity in mice after intravenous administration; conditions: mouse, in vivo, iv, observation period 14 days
Method: (§1) The acute toxicity of the test compound was determined in mice (observationperiod: 14 days) after intravenous administration.

mice = assay: as above; conditions: 35 mg/kg i.v., observation period 14 days
Method: as §1

blood circulation = assay: Effect on blood circulation in anesthetized dogs (i.v.); design: Duration: unit not given here; conditions: for Effect on average arterial blood pressure (first figure of the pair): figure before the slash; for Decrease in contractility dp/dt max: left ventricle
Method: The blood circulation tests were carried out on dogs with a body weight of 18-29 kg under chloraloseurethane-nembutal anesthesia (54+270+10 mg/kg i.v.). After opening the thorax in the 4th left intercostal space the animals were ventilated with room air by means of a Harvard respirator. The arterial blood pressure was measured in the arteria carotis by a Statham pressure transducer; the heart rate was measured electronically from the sequence of the R-peaks of the electrocardiogram. The maximum rate of pressure increase ([…]) in the left ventricula was measured by means of a Konigsberg pressure received and a Grass differential amplifier. All parameters were recorded by means of a direct-writer. For anticoagulation the animals were injected i.v. with a solution of 10 mg/kg of sodium polyethylenesulfonate in 20% polydiol. The test compounds were administered intravenously to groups of 3 to 4 dogs.

Row | Structure (SMILES) | LD50 at 336 h [1] [mg/kg] | Acute toxicity: animals died (mice) | Decrease in heart rate (blood circulation; 1.0 mg/kg i.v.) [min⁻¹] | Duration (blood circulation; 1.0 mg/kg i.v.) | Effect on average arterial blood pressure (first figure of the pair) (blood circulation; 1.0 mg/kg i.v.) | Decrease in contractility dp/dt max (blood circulation; 1.0 mg/kg i.v.) | Decrease in heart rate (blood circulation; 0.5 mg/kg i.v.) [min⁻¹] | Duration (blood circulation; 0.5 mg/kg i.v.) | Effect on average arterial blood pressure (second figure of the pair) (blood circulation; 0.5 mg/kg i.v., figure after the slash) [mm Hg] | Effect on average arterial blood pressure (first figure of the pair) (blood circulation; 0.5 mg/kg i.v.) [mm Hg] | Decrease in contractility dp/dt max (blood circulation; 0.5 mg/kg i.v.)
1 | COc1ccc2nc(-c3ccc(OCC(O)CNCCc4ccccc4OC)cc3)n(C)c(=O)c2c1.Cl.Cl (centres unmarked) [C, 2-{4-[2-Hydroxy-3-(2-(2-methoxy-phenyl)-ethylamino)-propoxy]-phenyl}-3-methyl-6-methoxy-3,4-dihydroquinazolin-4-one dihydrochloride] | > 35 | 0 out of 5 | -22 | > 36 | +1 mm Hg | -14 | – | – | – | – | –
2 | COc1cc2nc(-c3ccc(OCC(O)CNCCOc4ccccc4C)cc3)n(C)c(=O)c2cc1OC (centres unmarked) [E, 2-{4-[2-Hydroxy-3-(2-(2-methyl-phenoxy)-ethylamino)-propoxy]-phenyl}-3-methyl-6,7-dimethoxy-3,4-dihydroquinazolin-4-one] | > 35 | 0 out of 5 | -11 | > 36 | -13 mm Hg | -14 | – | – | – | – | –
3 | COc1ccc2nc(-c3ccc(OCC(O)CN(C)CCc4ccc(OC)c(OC)c4)cc3)n(C)c(=O)c2c1.Cl.Cl (centres unmarked) [B, 2-{4-[2-Hydroxy-3-(2-(3,4-dimethoxy-phenyl)-N-methylethylamino)-propoxy]-phenyl}-3-methyl-6-methoxy-3,4-dihydro-quinazolin-4-one dihydrochloride] | > 35 | 0 out of 5 | -28 | 45 | -16 mm Hg | -17 | – | – | – | – | –
4 | COc1ccc2nc(-c3ccc(OCC(O)CNC(C)(C)C)cc3)n(C)c(=O)c2c1 (centres unmarked) [Compound A, 2-[4-(2-Hydroxy-3-tert.butylamino-propoxy)-phenyl]-3-methyl-6-methoxy-3,4-dihydro-quinazolin-4-one] | > 35 | 0 out of 5 | – | – | – | – | -21 | > 55 | -8 | -20 | -33
5 | COc1cccc2c(=O)n(C)c(-c3ccc(OCCCNCC(O)COc4cccc(C)c4)cc3)nc12 (centres unmarked) [F, 2-{4-[3-(2-Hydroxy-3-(3-methyl-phenoxy)-propylamino)-propoxy]-phenyl}-3-methyl-8-methoxy-3,4-dihydroquinazolin-4-one] | > 35 | 0 out of 5 | -23 | > 63 | -11 mm Hg | -23 | – | – | – | – | –
6 | COc1ccc2nc(-c3ccc(OCC(O)CNC(C)C)cc3)n(C)c(=O)c2c1 (centres unmarked) [D, 2-[4-(2-Hydroxy-3-isopropylamino-propoxy)-phenyl]-3-methyl-6-methoxy-3,4-dihydro-quinazolin-4-one] | – | – | -30 | > 40 | -5 mm Hg | -27 | – | – | – | – | –
